For assay [1], the target named is Dual specificity protein kinase CLK2 (Homo sapiens, UniProt P49760).
Assay [2] concerns the target Cyclin-dependent kinase 5 (Homo sapiens, UniProt Q00535). As to the kind of experiment: Inhibition of CDK5 (unknown origin).
Assay [3] has as its target Glycogen synthase kinase-3 (Homo sapiens, UniProt P49840+P49841). In words: Inhibition of GSK3 (unknown origin). In kind it is protein assay.
Assay [4] has as its target T1, Dual specificity tyrosine-phosphorylation-regulated kinase 1A (Homo sapiens, UniProt Q13627).
The subject of assay [5] is K562. In words: Cytotoxicity against human K562 cells. The assay is classed as functional, cell-based.
Assay [6] deals with HL-60. In words: Cytotoxicity against HL-60 cells. The assay is classed as functional, cell-based. The note with it: Homo sapiens.
In assay [7] the target is SRSF protein kinase 2 (Homo sapiens, UniProt P78362).
For assay [8], the target named is T2, Serine/arginine-rich splicing factor 6 (Homo sapiens, UniProt Q13247).
T2 sequence (Q13247 whole entry): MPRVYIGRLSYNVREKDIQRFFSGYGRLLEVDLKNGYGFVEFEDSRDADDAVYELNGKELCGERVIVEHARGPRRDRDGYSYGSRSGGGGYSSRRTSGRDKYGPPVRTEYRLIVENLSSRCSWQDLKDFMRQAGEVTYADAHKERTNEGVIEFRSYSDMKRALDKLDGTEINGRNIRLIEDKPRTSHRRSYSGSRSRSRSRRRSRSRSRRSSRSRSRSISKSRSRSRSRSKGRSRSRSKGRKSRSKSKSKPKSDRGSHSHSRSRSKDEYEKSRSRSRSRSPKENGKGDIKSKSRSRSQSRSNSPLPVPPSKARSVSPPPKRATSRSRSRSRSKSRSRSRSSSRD
In words: Inhibition of SRSF6 (unknown origin).

The target of assay [9] is T1, Dual specificity tyrosine-phosphorylation-regulated kinase 1A. As to the kind of experiment: Inhibition of DYRK1A (unknown origin) at 1 uM relative to control.
Assay [10] has as its target SRSF protein kinase 1 (Homo sapiens, UniProt Q96SB4).

From ChEMBL document CHEMBL5104139, “A critical update on the strategies towards small molecule inhibitors targeting Serine/arginine-rich (SR) proteins and Serine/arginine-rich proteins related kinases in alternative splicing” (Bioorg Med Chem, 2022) come the findings set out here.

Chain of Cyclin-dependent kinase 5 (Q00535 whole entry): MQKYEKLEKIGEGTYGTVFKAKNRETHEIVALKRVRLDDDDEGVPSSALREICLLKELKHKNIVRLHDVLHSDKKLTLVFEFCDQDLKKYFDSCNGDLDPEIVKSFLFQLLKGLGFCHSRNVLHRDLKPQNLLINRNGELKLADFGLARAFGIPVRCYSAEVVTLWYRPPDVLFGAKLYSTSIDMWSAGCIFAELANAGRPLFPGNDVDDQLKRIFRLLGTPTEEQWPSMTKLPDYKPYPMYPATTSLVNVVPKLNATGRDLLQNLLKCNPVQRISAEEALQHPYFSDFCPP
Chain of SRSF protein kinase 1 (Q96SB4 whole entry): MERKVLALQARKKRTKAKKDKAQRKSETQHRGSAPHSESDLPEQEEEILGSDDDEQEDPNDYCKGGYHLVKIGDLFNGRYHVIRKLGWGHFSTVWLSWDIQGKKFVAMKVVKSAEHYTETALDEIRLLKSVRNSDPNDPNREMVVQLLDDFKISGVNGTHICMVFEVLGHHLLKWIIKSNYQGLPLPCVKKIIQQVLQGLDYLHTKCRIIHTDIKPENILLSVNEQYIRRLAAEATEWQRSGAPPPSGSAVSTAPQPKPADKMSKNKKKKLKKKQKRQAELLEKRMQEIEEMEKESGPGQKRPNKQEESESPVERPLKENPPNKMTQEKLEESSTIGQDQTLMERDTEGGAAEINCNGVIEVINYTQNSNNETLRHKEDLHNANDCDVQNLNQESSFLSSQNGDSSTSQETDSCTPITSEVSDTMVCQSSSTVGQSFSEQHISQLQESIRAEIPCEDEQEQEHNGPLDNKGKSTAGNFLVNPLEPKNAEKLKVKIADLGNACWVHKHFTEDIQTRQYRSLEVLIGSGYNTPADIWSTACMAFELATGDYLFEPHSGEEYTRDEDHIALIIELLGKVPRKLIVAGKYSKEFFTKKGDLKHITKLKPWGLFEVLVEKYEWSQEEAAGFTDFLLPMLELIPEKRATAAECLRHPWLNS
Chain of Dual specificity protein kinase CLK2 (P49760 whole entry): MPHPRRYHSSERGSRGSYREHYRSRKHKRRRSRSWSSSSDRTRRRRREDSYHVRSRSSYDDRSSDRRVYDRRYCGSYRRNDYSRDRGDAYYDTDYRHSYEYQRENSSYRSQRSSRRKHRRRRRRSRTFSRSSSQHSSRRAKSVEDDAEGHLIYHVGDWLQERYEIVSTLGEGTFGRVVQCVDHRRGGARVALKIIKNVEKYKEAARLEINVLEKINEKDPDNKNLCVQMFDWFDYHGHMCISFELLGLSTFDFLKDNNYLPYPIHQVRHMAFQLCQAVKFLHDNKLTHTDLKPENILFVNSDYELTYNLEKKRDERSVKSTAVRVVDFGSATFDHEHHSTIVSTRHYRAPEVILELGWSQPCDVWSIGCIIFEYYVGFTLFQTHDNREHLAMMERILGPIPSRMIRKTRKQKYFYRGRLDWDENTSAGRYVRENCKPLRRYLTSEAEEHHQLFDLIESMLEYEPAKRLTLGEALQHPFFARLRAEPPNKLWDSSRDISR
Chain of SRSF protein kinase 2 (P78362 whole entry): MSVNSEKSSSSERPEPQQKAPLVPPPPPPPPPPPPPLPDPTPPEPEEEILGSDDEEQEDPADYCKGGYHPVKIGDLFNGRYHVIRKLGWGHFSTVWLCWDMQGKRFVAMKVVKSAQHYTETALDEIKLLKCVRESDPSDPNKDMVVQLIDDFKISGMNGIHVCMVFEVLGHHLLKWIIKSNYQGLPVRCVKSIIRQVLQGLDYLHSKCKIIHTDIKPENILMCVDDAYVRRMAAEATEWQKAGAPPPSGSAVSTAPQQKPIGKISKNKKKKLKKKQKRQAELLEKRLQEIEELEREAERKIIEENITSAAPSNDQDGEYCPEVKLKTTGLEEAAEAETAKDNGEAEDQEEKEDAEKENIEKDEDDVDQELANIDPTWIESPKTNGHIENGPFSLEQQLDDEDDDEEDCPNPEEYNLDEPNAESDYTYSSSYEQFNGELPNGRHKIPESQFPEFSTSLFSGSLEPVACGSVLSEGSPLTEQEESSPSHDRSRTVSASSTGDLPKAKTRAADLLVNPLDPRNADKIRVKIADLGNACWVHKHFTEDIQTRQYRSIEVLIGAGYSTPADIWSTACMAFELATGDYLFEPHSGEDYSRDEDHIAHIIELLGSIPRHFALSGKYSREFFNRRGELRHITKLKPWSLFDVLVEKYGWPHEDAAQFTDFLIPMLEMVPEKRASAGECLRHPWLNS

For the compound `O=C(Oc1cc(O)c2c(c1)OC(c1cc(O)c(O)c(O)c1)CC2)c1cc(O)c(O)c(O)c1` (stereo not drawn), half-maximal inhibition in assay [1] (IC50) was put at 2700 nM.

For `C.O=c1oc2cc(O)ccc2c2c1[nH]c1ccccc12`, the IC50 (as a rule, the concentration needed to halve the response being measured) in assay [2] was 2700 nM; in [3], 380 nM; in [4], 74 nM.

Consider `COc1cc(/C=C2/C(=N)N3N=C(C(F)(F)F)SC3=NC2=O)ccc1O`, for which the values for the IC50 in assay [5], in assay [6] and in assay [7] were 44700 nM, 44700 nM and 203 nM, respectively.

On to `CCc1cc2c(cc1CC)CC(NC[C@H](O)c1ccc(O)c3[nH]c(=O)ccc13)C2` [INDACATEROL], for which it took 19000 nM to reach half-maximal inhibition in [8] (IC50).

Regarding `O=c1oc2cc(O)ccc2c2c1[nH]c1ccc(O)cc12`, the results for the IC50 in [2], in [3] and in assay [4] were 720 nM, 310 nM and 67 nM, respectively.

Consider `c1cc(-c2ccc3[nH]ncc3c2)ccn1`, for which the inhibition (in general, how much of the control response was suppressed) in assay [9] was 84%.

The compound `O=C(Nc1cc(C(F)(F)F)ccc1N1CCCCC1)c1ccncc1` registered an IC50 in assay [10] of 890 nM.
